Laboratory results: US20080027145A1, “Therapeutic Molecules and Methods for Generating and/or Selecting Same” (priority 2004, published 2008)
“Also recorded” adds a separate entry of the source. Like-named read-outs stand apart in the source and are kept apart here. Ends that are not written are not given here.

Experiments:
Bcl-2 = target: T1, Bcl-2 (Homo sapiens, UniProt P10415); assay: Solution competition assay (competition with immobilized wtBimBH3, biosensor); format: binding; details: for binding to Bcl-2: Noxa mutant peptides
T1 construct: Human Bcl-2 (Acc. no. NP_000624; residues 1-217); made in house
T1 sequence (P10415 1-217): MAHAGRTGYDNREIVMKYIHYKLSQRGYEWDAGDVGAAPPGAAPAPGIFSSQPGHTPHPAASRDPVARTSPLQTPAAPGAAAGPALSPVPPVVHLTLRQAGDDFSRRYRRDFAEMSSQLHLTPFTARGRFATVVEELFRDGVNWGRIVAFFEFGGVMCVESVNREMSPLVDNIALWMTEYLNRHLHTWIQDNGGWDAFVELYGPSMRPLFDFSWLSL
Protocol: (§1) The relative affinities of BH3 peptides for pro-survival Bcl-2 proteins were assessed by comparing their abilities to compete with immobilized ^wtBimBH3 peptide for binding to Bcl-2-like proteins (Wilson-Annan et al., Supra). A fixed sub-saturating amount (10 nM) of a pro-survival Bcl-2 protein was incubated with varying amounts of competitor BH3 peptide in HBS for >2 hr on ice. The mixtures were then injected over a sensor chip containing a channel bearing mouse ^wtBimBH3 and a control channel with mouse ^4EBimBH3 immobilized. The baseline response (control channel) was subtracted to obtain the absolute binding response. Taking the response for the pro-survival protein alone as the maximal response (100%), the relative residual binding (%) in the presence of increasing amounts of competitor peptides at a given injection time point (430 s) was then calculated. […] Theoretically, IC50=[A]/2+KD, where [A] is the analyte concentration.
(§2) Some of recombinant proteins (Bcl-2, Bcl-xL, A1) studied contain cysteine residues but the behavior of Bcl-2 or Bcl-xL was not affected by dithiothreitol (DTT).
(§3) To assess if other BH3 peptides bind pro-survival proteins similarly, we directly compared their binding affinities in solution using a competitive binding assay. In such assays, the quality and absolute quantity of target proteins are less critical than in direct binding, and solution binding precludes the steric hindrance encountered with some immobilized peptides. FIG. 1C illustrates the approach: pre-incubation of Bcl-xL in solution with increasing amounts of BikBH3 reduced its binding to ^wtBimBH3 (FIG. 1D). From the attenuation in binding, the IC50 (competitor peptide concentration that halves binding) of BikBH3 can be calculated (FIG. 1E). As the IC50 values reflect relative binding affinities (see Experimental Procedures), we used this assay to compare the binding affinities of eight BH3 peptides (Table 3) to the five pro-survival proteins. […] Their binding properties fell into several classes (FIG. 2B and FIG. 4). […] Contrary to the prevailing view, the pro-survival proteins also had unique patterns for BH3 binding: Bcl-xL behaved like Bcl-w, with Bcl-2 more distinct, whereas Mcl-1 and A1 formed a separate group (FIG. 2B).

Bcl-xL = target: T2, Bcl-xL (Homo sapiens, UniProt Q07817); assay: as above; format: binding; details: for fold tighter than wild-type peptide: IC50 ratio to wild-type Noxa BH3; for increase in binding to Bcl-xL: versus wt NoxaBH3
T2 construct: Human Bcl-xL (Acc. no. NP_612815; residues 1-209); GST (N, cleaved yes); made in house
T2 sequence (Q07817 1-209): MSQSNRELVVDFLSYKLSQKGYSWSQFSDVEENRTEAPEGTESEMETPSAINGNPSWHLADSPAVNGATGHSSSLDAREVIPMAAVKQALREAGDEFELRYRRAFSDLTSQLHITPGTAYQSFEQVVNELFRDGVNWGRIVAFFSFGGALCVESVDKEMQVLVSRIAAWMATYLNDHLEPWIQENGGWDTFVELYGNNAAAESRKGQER
Protocol: as §1, §2, §3

[1] = tested on: pro-survival proteins (Bcl-2, Bcl-xL, Bcl-w, Mcl-1, A1); assay: Solution competition assay, statements spanning several pro-survival proteins; format: binding, human and mouse; details: for binding preference among pro-survival proteins: Bcl-2, Bcl-xL, Bcl-w, Mcl-1, A1
Protocol: as §1, §2, §3

Mcl-1 = target: T3, Mcl-1 (Mus musculus, UniProt P97287); assay: Solution competition assay (competition with immobilized wtBimBH3, biosensor); format: binding; details: versus wt NoxaBH3
T3 construct: mouse Mcl-1 (Acc. no. NP_031588; residues 152-308); GST (N, cleaved yes); made in house
T3 sequence (P97287 152-308): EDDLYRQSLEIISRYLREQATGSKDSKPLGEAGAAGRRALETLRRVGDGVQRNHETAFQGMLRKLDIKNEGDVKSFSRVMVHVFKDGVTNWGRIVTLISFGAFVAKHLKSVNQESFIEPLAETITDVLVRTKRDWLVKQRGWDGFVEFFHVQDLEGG
Protocol: as §1, §2, §3

[2] = tested on: mouse embryonic fibroblasts (MEFs); assay: Killing of MEFs after retroviral expression, viability 24 hours after infection; format: cell-based; details: retroviral expression, 24 hours after infection
Protocol: FIG. 7 is a graphical representation showing that BH3-only proteins that bind selective targets have weak killing activity. (A) The affinities of BH3-only peptides for pro-survival proteins (tabulated in FIG. 3A) were inversely plotted to facilitate comparison of the patterns of BH3 binding. […] Immortalized 3T9 MEFs were infected with retroviruses expressing only GFP (control), or one of the BH3-only proteins and GFP. The viability of the infected (GFP^+ve) cells was determined by PI exclusion 24 hours after infection. The histograms represent means±1SD of at least 3 experiments. […] The filter was probed with a rat monoclonal anti-FLAG antibody. *Degradation product of Mcl-1. […] Viability of MEFs infected with retroviruses encoding the indicated proteins (GFP^+ve) was analyzed 24 hours after infection. The histograms represent means±1SD of at least 3 experiments. (E) Long-term survival of MEFs infected with BH3 expressing retroviruses. One hundred retrovirally-infected cells were plated and the absolute number of GFP^+ve colonies formed after 6 days scored. […] The data represent the average number of GFP^+ve colonies formed±1SD from at least 3 experiments. To assess the biological relevance of the selective binding, retroviral delivery was used to compare the ability of different BH3-only proteins to kill wild-type mouse embryonic fibroblasts (MEFs). To monitor expression of the introduced gene, a vector (pMIG) in which its expression is coupled via an internal ribosomal entry site (IRES) to that of green fluorescent protein (GFP) was used (Van Parijs et al., Immunity 11:281-288, 1999). The cells were efficiently infected (>90%) and the introduced BH3-only proteins were comparably expressed. Viability of the infected (GFP^+ve) cells was scored 24 hours after infection (FIGS. 7A, 7B) and in long-term colony assays (FIG. 7E). […] Thus, the neutralization of Mcl-1 by Noxa should be complemented by co-expression of a BadBH3 to neutralize Bcl-2 and Bcl-xL in MEFs (FIG. 8A).

[3] = tested on: mouse embryonic fibroblasts (MEFs); assay: Long-term colony assay of retrovirally infected MEFs; format: cell-based; details: colonies after 6 days
Protocol: FIG. 7 is a graphical representation showing that BH3-only proteins that bind selective targets have weak killing activity. (A) The affinities of BH3-only peptides for pro-survival proteins (tabulated in FIG. 3A) were inversely plotted to facilitate comparison of the patterns of BH3 binding. […] Immortalized 3T9 MEFs were infected with retroviruses expressing only GFP (control), or one of the BH3-only proteins and GFP. The viability of the infected (GFP^+ve) cells was determined by PI exclusion 24 hours after infection. The histograms represent means±1SD of at least 3 experiments. […] The filter was probed with a rat monoclonal anti-FLAG antibody. *Degradation product of Mcl-1. […] Viability of MEFs infected with retroviruses encoding the indicated proteins (GFP^+ve) was analyzed 24 hours after infection. The histograms represent means±1SD of at least 3 experiments. (E) Long-term survival of MEFs infected with BH3 expressing retroviruses. One hundred retrovirally-infected cells were plated and the absolute number of GFP^+ve colonies formed after 6 days scored. […] The data represent the average number of GFP^+ve colonies formed±1SD from at least 3 experiments. […] Viability of the infected (GFP^+ve) cells was scored 24 hours after infection (FIGS. 7A, 7B) and in long-term colony assays (FIG. 7E).

A1 ΔC20 = target: T4, A1 ΔC20 (Mus musculus, UniProt Q07440); assay: Direct binding to immobilized BH3 peptide, Biacore biosensor; details: BadBH3 or NoxaBH3 immobilized chip
T4 construct: mouse A1 (Acc. no. NP_033872; residues 1-152); GST (N, cleaved yes); made in house
T4 sequence (Q07440 1-152): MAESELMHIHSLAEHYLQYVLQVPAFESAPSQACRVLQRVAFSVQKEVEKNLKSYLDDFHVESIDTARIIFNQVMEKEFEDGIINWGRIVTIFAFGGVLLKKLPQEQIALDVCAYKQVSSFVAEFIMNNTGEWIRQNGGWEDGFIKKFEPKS
Protocol: (§4) Recombinant human Bcl-xL ΔC24, mouse Mcl-1 ΔN151 ΔC23 and mouse A1 ΔC20 were expressed as GST fusion proteins and cleaved off Glutathione Sepharose columns as described (Day et al., Cell Death Differ 6:1125-1132, 1999; Hinds et al., EMBO J 22:1497-1507, 2003).
(§5) Affinity measurements were performed at room temperature on a Biacore 3000 biosensor (Biacore) with HBS (10 mM HEPES pH 7.2, 150 mM NaCl, 3.4 mM EDTA, 0.005% Tween 20) as the running buffer. Mouse 26-mer ^wtBimBH3, ^4EBimBH3 mutant, BadBH3, NoxaBH3 or control irrelevant peptides were immobilized onto CM5 sensor chips using amine-coupling chemistry (Wilson-Annan et al., Supra). To assess the binding affinities of pro-survival Bcl-2-like proteins for BimBH3 directly, the proteins were directly injected into the sensor chip at 20 μl/min. Residual bound proteins were desorbed with 50 mM NaOH or 6 M GuHCl (pH 7.2), followed by two washes with running buffer. Binding kinetics were derived from sensorgrams, following subtraction of baseline responses, using BIA evaluation software (version 3, Biacore) (Wilson-Annan et al., Supra).
(§6) The binding constants of the pro-survival molecules for ^wtBimBH3, immobilized on sensor chip, were determined using biosensor experiments as described in Hinds et al., Supra; Wilson-Annan et al., Supra.

Mcl-1 ΔN151 ΔC23 = target: T5, Mcl-1 ΔN151 ΔC23 (Mus musculus, UniProt P97287); assay: as above; details: BadBH3 or NoxaBH3 immobilized chip
T5 construct: mouse Mcl-1 (Acc. no. NP_031588; residues 152-308); GST (N, cleaved yes); made in house
T5 sequence (P97287 152-308): as the sequence (P97287 152-308) above
Protocol: as §4, §5, §6

Bcl-w = target: T6, Bcl-w (Homo sapiens, UniProt Q92843, A128E/C29S); assay: Solution competition assay (competition with immobilized wtBimBH3, biosensor); format: binding
T6 construct: human Bcl-w (Acc. no. NP_004041; residues 1-164; C29S A128E); made in house
T6 sequence (Q92843 1-164 C29S/A128E): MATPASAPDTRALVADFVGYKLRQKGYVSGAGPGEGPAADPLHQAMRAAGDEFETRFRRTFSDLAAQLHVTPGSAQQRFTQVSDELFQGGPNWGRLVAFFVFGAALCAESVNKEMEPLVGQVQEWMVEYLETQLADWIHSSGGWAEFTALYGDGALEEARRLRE
Protocol: as §1, §2, §3

[4] = competitor peptide vs immobilized wtBimBH3, read-out: IC50 for Bcl-xL

## H-PAELEVECATQLRRIGDKLNFRQKLL-OH [Noxa (18-43) mt2]
Bcl-2
  binding to Bcl-2: remained weak
Bcl-xL
  fold tighter than wild-type peptide: at least 90 fold
  increase in binding to Bcl-xL: more than 100 fold

## BmfBH3: mouse Bmf BH3 peptide residues 128-151, HRAEVQIARKLQCIADQFHRLHTQ
[1]
  binding preference among pro-survival proteins: showed similar preferences

## H-PAELEVECATQLRRIGDELNFRQKLL-OH [Noxa (18-43) mt3]
Bcl-2
  binding to Bcl-2: remained weak
Bcl-xL; [4]
  IC50: 0.11 µM
Mcl-1
  Mcl-1 binding: slightly improved

## BikBH3: human Bik BH3 peptide residues 51-75, MEGSDALALRLACIGDEMDVSLRAP
[1]
  binding preference among pro-survival proteins: preferred Bcl-xL, Bcl-w and A1 over Bcl-2 or Mcl-1

## PumaBH3: human Puma BH3 peptide residues 130-155, EEQWAREIGAQLRRMADDLNAQYERR
[1]
  binding preference among pro-survival proteins: comparable affinities for all the pro-survival proteins

## BidBH3: human Bid BH3 peptide residues 81-104, DIIRNIARHLAQVGDSMDRSIPPG
[1]
  binding preference among pro-survival proteins: preferred Bcl-xL, Bcl-w and A1 over Bcl-2 or Mcl-1

## Bims: Bim isoform, the most potent, expressed from retrovirus in MEFs
[2]
  killing of MEFs: soon died
[3]
  long-term survival, GFP+ve colonies: failed to generate colonies; also recorded: No colonies

## PAELEVECATQLRRFGDKLNFRQKLL [Noxa (18-43)]
A1 ΔC20
  binding of A1 to immobilized peptide: bound
Mcl-1 ΔN151 ΔC23
  binding of Mcl-1 to immobilized peptide: bound
Bcl-2; Bcl-2, one of 'the others'
  IC50: > 100 µM
Bcl-w; Bcl-w, one of 'the others', read-out: IC50
  IC50: > 100 µM
Bcl-w; competitor peptide vs immobilized wtBimBH3, read-out: IC50 for Bcl-w
  IC50: > 100 µM
Bcl-xL; Bcl-xL, b59-60 do not name the target, values match Table 4, read-out: IC50
  IC50: > 100 µM
Bcl-xL; [4]
  IC50: > 100 µM
[1]; listed as Noxa BH3
  binding preference among pro-survival proteins: selectively binds Mcl-1 and A1
[1]; listed as NoxaBH3
  binding preference among pro-survival proteins: highly selective for Mcl-1 and A1
[1]; Mcl-1 and A1
  IC50: nM range

## Hrk: BH3-only protein Hrk expressed from retrovirus in MEFs
[2]
  killing of MEFs: much less potent killers

## H-PAELEVECATQLRRFGDELNFRQKLL-OH [Noxa (18-43) mt1]
Bcl-2
  binding to Bcl-2: remained weak
Bcl-xL
  fold tighter than wild-type peptide: at least 17 fold
  increase in binding to Bcl-xL: more than 20 fold
